Results from patent publication US10364256B2 (GlaxoSmithKline Intellectual Property Development Limited, priority 2015, dated 2019).
Read-outs that look alike come from different tables or passages of the source.

Key:
[1] = system: NQO1 specific enzyme activity in BEAS-2B cells (marker for NRF2 activation); assay: BEAS-2B NQO1 MTT Assay; type: cell-based; settings: Homo sapiens, compound incubated 48 hours, read-out: EC50 (NQO1 specific enzyme activity induction)
Summary of the method: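 BEAS-2B cells treated with compound for 48 h at 37 °C, then lysed; NQO1 activity in lysates measured kinetically by MTT reduction at A570 over 30 min. pEC50 from 3-parameter fit of ΔOD/min versus log concentration; lysate also taken for Cell Titer Glo.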

[2] = target: T1, full length Keap1 protein / full length NRF2 protein (Homo sapiens, UniProt Q14145); assay: NRF2-Keap1 TR-FRET Assay; type: binding; settings: 25 nM Keap1-FlagHis and 50 nM biotin-NRF2 added
T1 construct: full length NRF2 protein and full length Keap1 protein (Keap1 exists a dimer) are used; His
Summary of the method: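 Full-length Keap1-FlagHis preincubated with compound 2.25 h at 37 °C, then biotin-NRF2 added for 1.25 h at 4 °C, in Tris pH 8.0 with MgCl2, NaCl, BSA, DTT, CHAPS. TR-FRET 665/615 nm ratio normalised to with- and without-protein 1% DMSO controls; pIC50 from four-parameter fit.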

T1 sequence (Q14145 whole entry): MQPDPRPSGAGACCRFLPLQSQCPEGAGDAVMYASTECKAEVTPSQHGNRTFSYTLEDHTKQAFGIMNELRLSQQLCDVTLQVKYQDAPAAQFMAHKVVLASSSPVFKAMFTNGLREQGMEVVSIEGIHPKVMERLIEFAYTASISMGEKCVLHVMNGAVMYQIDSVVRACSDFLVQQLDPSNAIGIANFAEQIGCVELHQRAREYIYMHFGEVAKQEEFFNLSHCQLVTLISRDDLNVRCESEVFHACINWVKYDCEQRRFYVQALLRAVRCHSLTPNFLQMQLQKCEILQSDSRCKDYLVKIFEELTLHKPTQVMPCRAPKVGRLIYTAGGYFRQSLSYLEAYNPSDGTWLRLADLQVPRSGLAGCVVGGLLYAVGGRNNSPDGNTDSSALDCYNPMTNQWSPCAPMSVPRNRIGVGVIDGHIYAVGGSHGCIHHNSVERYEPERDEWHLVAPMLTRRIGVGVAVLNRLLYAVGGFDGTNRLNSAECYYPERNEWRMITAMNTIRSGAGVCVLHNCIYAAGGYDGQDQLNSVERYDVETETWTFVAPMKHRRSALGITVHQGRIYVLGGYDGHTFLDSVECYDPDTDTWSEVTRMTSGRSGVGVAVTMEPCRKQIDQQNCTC

| SMILES | IC50 [2] [nM] | EC50 [1] [nM] | EC50 ([1]; BEAS-2B, 48 h) [nM] |
| --- | --- | --- | --- |
| Cn1cc([C@@H]2C[C@H]2c2c(C(=O)O)cnn2-c2cccc(-c3cccc(OCCC4CCCCC4)c3)c2)nn1 (racemic) [Example 245, 1-(3′-(2-cyclohexylethoxy)-[1,1′-biphenyl]-3-yl)-5-(trans-2-(1-methyl-1H-1,2,3-triazol-4-yl)cyclopropyl)-1H-pyrazole-4-carboxylic Acid] | 100 to 1000 | 10 to 100 | – |
| CCC[C@@H]1CCCCN1C(=O)c1cccc(-c2cc(C)cc(-n3ncc(C(=O)O)c3[C@@H]3C[C@H]3c3cn(C)nn3)c2)c1 (single isomer, unassigned) [Example 155] | 10 to 100 | – | 100 to 1000 |
| Cn1cc([C@H]2C[C@@H]2c2c(C(=O)O)cnn2-c2cccc(-c3cccc(-n4ncc5c4C(C)(C)CC5)c3)c2)nn1 (stereo in doubt) [Example 208, 1-(3′-(6,6-Dimethyl-5,6-dihydrocyclopenta[c]pyrazol-1(4H)-yl)-[1,1′-biphenyl]-3-yl)-5-((1S,2S)-2-(1-methyl-1H-1,2,3-triazol-4-yl)cyclopropyl)-1H-pyrazole-4-carboxylic Acid] | 10 to 100 | 10 to 100 | – |
| CCCC1CCCCN1C(=O)c1cccc(-c2cccc(-n3ncc(C(=O)O)c3C3CC3)c2)c1F (centres unmarked) [Example 17, 5-Cyclopropyl-1-{3-[2-fluoro-3-(2-propylpiperidine-1-carbonyl)phenyl]phenyl}-1H-pyrazole-4-carboxylic Acid] | 100 to 1000 | 100 to 1000 | – |
| C[C@@H]1CCC[C@H](C)N1C(=O)c1cccc(-c2cccc(-n3ncc(C(=O)O)c3C3CC3)c2)c1F [Example 21, 5-Cyclopropyl-1-(3-{3-[(2R,6S)-2,6-dimethylpiperidine-1-carbonyl]-2-fluorophenyl}phenyl)-1H-pyrazole-4-carboxylic Acid] | 100 to 1000 | 100 to 1000 | – |
| CCCC1CCCCN1C(=O)c1cccc(-c2cccc(-n3ncc(C(=O)O)c3C3CC3c3cccnn3)c2)c1 (centres unmarked) [Example 41, 1-[3′-(2-Propyl-piperidine-1-carbonyl)-biphenyl-3-yl]-5-(2-pyridazin-3-yl-cyclopropyl)-1H-pyrazole-4-carboxylic Acid] | 10 to 100 | – | 1000 to 10000 |
| CCC[C@@H]1CCCCN1C(=O)c1cccc(-c2cccc(-n3ncc(C(=O)O)c3[C@@H]3C[C@H]3c3cn(C)nn3)c2)c1 [Example 51h, 5-[(1R,2R)-2-(1-methyl-1H-1,2,3-triazol-4-yl)cyclopropyl]-1-(3-{3-[(2R)-2-propylpiperidine-1-carbonyl]phenyl}phenyl)-1H-pyrazole-4-carboxylic Acid] | 10 to 100 | – | 10 to 100 |
| CCC[C@@H]1CCCCN1C(=O)c1cccc(-c2cccc(-n3ncc(C(=O)O)c3C3CC3c3cn(C)nn3)c2)c1F (stereo partly drawn) [Example 57, 1-(2′-Fluoro-3′-((R)-2-propylpiperidine-1-carbonyl)-[1,1′-biphenyl]-3-yl)-5-(2-(1-methyl-1H-1,2,3-triazol-4-yl)cyclopropyl)-1H-pyrazole-4-carboxylic Acid] | 10 to 100 | – | 10 to 100 |
| O=C(O)c1cnn(-c2cccc(-c3cccc(-n4ncc5c4CCC5)c3)c2)c1C1CC1 [Example 61, 5-Cyclopropyl-1-(3′-(5,6-dihydrocyclopenta[c]pyrazol-1(4H)-yl)-[1,1′-biphenyl]-3-yl)-1H-pyrazole-4-carboxylic Acid] | 1000 to 10000 | – | 100 to 1000 |
| O=C(O)c1cnn(-c2cccc(-c3cccc(-n4ncc5c4CCCC5)c3)c2)c1C1CC1 [Example 62, 5-cyclopropyl-1-(3′-(4,5,6,7-tetrahydro-1H-indazol-1-yl)-[1,1′-biphenyl]-3-yl)-1H-pyrazole-4-carboxylic Acid] | 1000 to 10000 | – | 100 to 1000 |
| CCC[C@@H]1CCCCN1C(=O)c1cccc(-c2cccc(-n3ncc(C(=O)O)c3C3CC3(F)F)c2)c1 (stereo partly drawn) [Example 67, 5-(2,2-Difluorocyclopropyl)-1-(3′-((R)-2-propylpiperidine-1-carbonyl)-[1,1′-biphenyl]-3-yl)-1H-pyrazole-4-carboxylic Acid] | 100 to 1000 | – | 100 to 1000 |
| CC(Oc1cccc(-c2cccc(-n3ncc(C(=O)O)c3[C@@H]3C[C@H]3c3cn(C)nn3)c2)c1)C1CCCCC1 (stereo partly drawn) [Example 163, 1-(3′-(1-Cyclohexylethoxy)-[1,1′-biphenyl]-3-yl)-5-((1R,2R)-2-(1-methyl-1H-1,2,3-triazol-4-yl)cyclopropyl)-1H-pyrazole-4-carboxylic acid] | 1000 to 10000 | – | 10 to 100 |
| Cn1cc(C2CC2c2c(C(=O)O)cnn2-c2cccc(-c3cccc(OCC4CCCCC4)c3)c2)nn1 (centres unmarked) [Example 164, 1-(3′-(Cyclohexylmethoxy)-[1,1′-biphenyl]-3-yl)-5-(2-(1-methyl-1H-1,2,3-triazol-4-yl)cyclopropyl)-1H-pyrazole-4-carboxylic acid] | 100 to 1000 | 10 to 100 | – |
| CC(Oc1cccc(-c2cccc(-n3ncc(C(=O)O)c3[C@H]3C[C@@H]3c3cn(C)nn3)c2)c1)C1CCCCC1 (stereo partly drawn) [Example 165, 1-(3′-(1-Cyclohexylethoxy)-[1,1′-biphenyl]-3-yl)-5-((1S,2S)-2-(1-methyl-1H-1,2,3-triazol-4-yl)cyclopropyl)-1H-pyrazole-4-carboxylic acid] | 10 to 100 | – | 1 to 10 |
| Cn1cc(C2CC2c2c(C(=O)O)cnn2-c2cccc(-c3cccc(OCC4CCN(C(=O)OC(C)(C)C)CC4)c3)c2)nn1 (centres unmarked) [Example 167, 1-(3′-((1-(tert-Butoxycarbonyl)piperidin-4-yl)methoxy)-[1,1′-biphenyl]-3-yl)-5-(2-(1-methyl-1H-1,2,3-triazol-4-yl)cyclopropyl)-1H-pyrazole-4-carboxylic acid] | 100 to 1000 | 100 to 1000 | – |
| Cn1cc([C@@H]2C[C@H]2c2c(C(=O)O)cnn2-c2cccc(-c3cccc(OCC4CCCCC4)c3)c2)nn1 [Example 171, 1-(3′-(Cyclohexylmethoxy)-[1,1′-biphenyl]-3-yl)-5-((1R,2R)-2-(1-methyl-1H-1,2,3-triazol-4-yl)cyclopropyl)-1H-pyrazole-4-carboxylic acid] | 100 to 1000 | 10 to 100 | – |

More lines, main results first:

| IC50 [2] [nM] | SMILES | EC50 [1] [nM] | EC50 ([1]; BEAS-2B, 48 h) [nM] |
| --- | --- | --- | --- |
| 1000 to 10000 | Cn1cc([C@@H]2C[C@H]2c2c(C(=O)O)cnn2-c2cccc(-c3cncc(OCC4CCCCC4)c3)c2)nn1 (racemic) [Example 246, 1-(3-(5-(Cyclohexylmethoxy)pyridin-3-yl)phenyl)-5-(trans-2-(1-methyl-1H-1,2,3-triazol-4-yl)cyclopropyl)-1H-pyrazole-4-carboxylic Acid] | 1000 to 10000 | – |
| 100 to 1000 | CC(Oc1cccc(-c2cccc(-n3ncc(C(=O)O)c3[C@H]3C[C@@H]3c3cn(C)nn3)c2)c1)C1CCCCC1 (single isomer, unassigned) [Example 191] | – | 100 to 1000 |
| 100 to 1000 | O=C(O)c1cnn(-c2cccc(-c3cccc(C(=O)N(CC4CCCC4)CC4CC4)c3F)c2)c1C1CC1 [Example 14, 1-(3-{3-[(Cyclopentylmethyl)(cyclopropylmethyl)carbamoyl]-2-fluorophenyl}phenyl)-5-cyclopropyl-1H-pyrazole-4-carboxylic Acid] | 100 to 1000 | – |
| 10 to 100 | CCCC1CCCCN1C(=O)c1cccc(-c2cccc(-n3ncc(C(=O)O)c3C3CC3c3cn(C)nn3)c2)c1 (centres unmarked) [Example 42, 5-[2-(1-methyl-1H-1,2,3-triazol-4-yl)cyclopropyl]-1-{3-[3-(2-propylpiperidine-1-carbonyl)phenyl]phenyl}-1H-pyrazole-4-carboxylic Acid] | – | 100 to 1000 |
| 1000 to 10000 | CCC[C@@H]1CCCCN1C(=O)c1cccc(-c2cccc(-n3ncc(C(=O)O)c3[C@H]3C[C@@H]3c3cn(C)nn3)c2)c1 [Example 51g, 5-[(1S,2S)-2-(1-methyl-1H-1,2,3-triazol-4-yl)cyclopropyl]-1-(3-{3-[(2R)-2-propylpiperidine-1-carbonyl]phenyl}phenyl)-1H-pyrazole-4-carboxylic Acid] | – | 1000 to 10000 |
| 10 to 100 | CC[C@@H]1CN(Cc2cccc(-c3cccc(-n4ncc(C(=O)O)c4C4CC4c4cn(C)nn4)c3)c2)Cc2ccccc2O1 (stereo partly drawn) [Example 129, 1-(3′-(((R)-2-ethyl-2,3-dihydrobenzo[f][1,4]oxazepin-4(5H)-yl)methyl)-[1,1′-biphenyl]-3-yl)-5-(2-(1-methyl-1H-1,2,3-triazol-4-yl)cyclopropyl)-1H-pyrazole-4-carboxylic Acid] | 100 to 1000 | – |
| 10 to 100 | CCC[C@@H]1CCCCN1C(=O)c1cccc(-c2cc(C)cc(-n3ncc(C(=O)O)c3C3CC3c3cn(C)nn3)c2)c1 (stereo partly drawn) [Example 154, 5-(2-(1-Methyl-1H-1,2,3-triazol-4-yl)cyclopropyl)-1-(5-methyl-3′-((R)-2-propylpiperidine-1-carbonyl)-[1,1′-biphenyl]-3-yl)-1H-pyrazole-4-carboxylic Acid] | – | 100 to 1000 |
| 10 to 100 | CCC[C@@H]1CCCCN1C(=O)c1cccc(-c2cc(Cl)cc(-n3ncc(C(=O)O)c3C3CC3c3cn(C)nn3)c2)c1 (stereo partly drawn) [Example 160, 1-(5-Chloro-3′-((R)-2-propylpiperidine-1-carbonyl)-[1,1′-biphenyl]-3-yl)-5-(2-(1-methyl-1H-1,2,3-triazol-4-yl)cyclopropyl)-1H-pyrazole-4-carboxylic Acid Compound with 2,2,2-trifluoroacetic Acid (1:1)] | – | 100 to 1000 |
| 10000 to 100000 | CC(CC1CCCCC1)Oc1cccc(-c2cccc(-n3ncc(C(=O)O)c3C3CC3)c2)c1 (centres unmarked) [Example 161, 1-(3′-((1-Cyclohexylpropan-2-yl)oxy)-[1,1′-biphenyl]-3-yl)-5-cyclopropyl-1H-pyrazole-4-carboxylic Acid] | 100 to 1000 | – |
